Results taken from ChEMBL document CHEMBL1148828, “Deoxycholic acid-derived tetraoxane antimalarials and antiproliferatives(1)” (J Med Chem, 2007).
Calls of active or inactive are those of the source. The rule behind the calls is not given here.

Assays:
MDA-MB-435 = assay: Antiproliferative activity against human MDA-MB-435 cells after 48 hrs; format: functional; details: Homo sapiens, MDA-MB-435, 48 h
Plasmodium falciparum [1] = assay: Antimalarial activity against Plasmodium falciparum W2; format: functional, organism-based
MDA-MB-231 = assay: Antiproliferative activity against human MDA-MB-231 cells after 48 hrs; format: functional; details: MDA-MB-231, 48 h
SF-295 = assay: Antiproliferative activity against human SF295 cells after 48 hrs; format: functional; details: SF-295, 48 h
SF-539 = assay: Antiproliferative activity against human SF539 cells after 48 hrs; format: functional; details: SF-539, 48 h
Plasmodium falciparum [2] = assay: Antimalarial activity against Plasmodium falciparum D6; format: functional, organism-based
SN12C = assay: Antiproliferative activity against human SN12C cells after 48 hrs; format: functional
DU-145 = assay: Antiproliferative activity against human DU145 cells after 48 hrs; format: functional; details: DU-145, 48 h
LOX IMVI = assay: Antiproliferative activity against human LOX IMVI cells after 48 hrs; format: functional
Plasmodium falciparum [3] = assay: Antimalarial activity against Plasmodium falciparum TM91C235; format: functional, organism-based
NCI-H23 = assay: Antiproliferative activity against human NCI-H23 cells after 48 hrs; format: functional; details: NCI-H23, 48 h
HL-60 = assay: Antiproliferative activity against human HL60 cells after 48 hrs; format: functional; details: Homo sapiens, HL-60, 48 h
A498 = assay: Antiproliferative activity against human A498 cells after 48 hrs; format: functional; details: A498, 48 h
NCI = assay: Growth inhibition of human NCI DTP 60 cells; format: functional; details: Homo sapiens, NCI
U-251 = assay: Antiproliferative activity against human U251 cells after 48 hrs; format: functional; details: U-251, 48 h
COLO 205 = assay: Antiproliferative activity against human COLO205 cells after 48 hrs; format: functional
HOP-62 = assay: Antiproliferative activity against human HOP62 cells after 48 hrs; format: functional; details: HOP-62, 48 h
HCT-116 = assay: Antiproliferative activity against human HCT116 cells after 48 hrs; format: functional; details: HCT-116, 48 h
HCT-15 = assay: Antiproliferative activity against human HCT15 cells after 48 hrs; format: functional; details: HCT-15, 48 h
786-0 = assay: Antiproliferative activity against human 786-0 cells after 48 hrs; format: functional; details: Homo sapiens, 786-0, 48 h
[4] = Metabolic stability in human liver microsomes; format: ADME, Microsome; details: liver microsomes
CCRF-CEM = assay: Antiproliferative activity against human CCRF-CEM cells after 48 hrs; format: functional
Mus musculus [5] = assay: Survival of Plasmodium berghei KBG 173 infected CD1 mice (Mus musculus) at 40 mg/kg/day; format: ADME, organism-based; details: in vivo
T47D = assay: Antiproliferative activity against human T47D cells after 48 hrs; format: functional
Mus musculus [6] = assay: Survival of Plasmodium berghei KBG 173 infected CD1 mice (Mus musculus) at 160 mg/kg/day; format: ADME, organism-based; details: in vivo
[7] = Metabolic stability in mouse liver microsomes; format: ADME, Microsome; details: liver microsomes
M14 = assay: Antiproliferative activity against human M14 cells after 48 hrs; format: functional; details: M14, 48 h, read-out: LC50 (the source's name)
HCC 2998 = assay: Antiproliferative activity against human HCC2998 cells after 48 hrs; format: functional; details: HCC 2998, 48 h
Plasmodium berghei = assay: Antimalarial activity as survivors after 31 days in Plasmodium berghei KBG173 infected CD1 mice (Mus musculus) at 40 mg/kg/day; format: functional, organism-based; details: KBG 173
A549 = assay: Antiproliferative activity against human A549 cells after 48 hrs; format: functional; details: A549, 48 h
UO-31 = assay: Antiproliferative activity against human UO31 cells after 48 hrs; format: functional; details: Homo sapiens, UO-31, 48 h
HOP-92 = assay: Antiproliferative activity against human HOP92 cells after 48 hrs; format: functional; details: Homo sapiens, HOP-92, 48 h
[8] = read-out: LC50 (the source's name)
[9] = Plasmodium falciparum, TM91C235

Work on `CC(=O)O[C@H]1C[C@H]2[C@@H](CC[C@@H]3CC4(CC[C@@]32C)OOC2(CCC(C)CC2)OO4)[C@@H]2CC[C@H]([C@H](C)CCC(N)=O)[C@@]12C` (stereo in doubt; 12) yielded a GI50 (MDA-MB-435) of 951 nM, a TGI (MDA-MB-435) of 1940 nM and a CC50 (MDA-MB-435; [8]) of 3.96 µM. For the same molecule, the IC90 (Plasmodium falciparum [1]) was 29.7 nM, the IC50 (Plasmodium falciparum [1]; Plasmodium falciparum, W2) was 18.8 nM and the GI50 (MDA-MB-231) was 821 nM. It also gave a TGI (MDA-MB-231) of 1760 nM, a CC50 (MDA-MB-231; [8]) of 3.77 µM and a GI50 (SF-295) of 524 nM. The TGI (SF-295) was 1690 nM, the CC50 (SF-295; [8]) was 3.46 µM and the TGI (SF-539) was 1840 nM. The CC50 (SF-539; [8]) was 3.61 µM, the IC50 (Plasmodium falciparum [2]; Plasmodium falciparum, D6) was 13.6 nM and the IC90 (Plasmodium falciparum [2]; Plasmodium falciparum, D6) was 19 nM. It also gave a GI50 (SN12C) of 833 nM, an LC50 (concentration killing 50% of cells) (SN12C) of 3000 nM and a TGI (SN12C) of 1580 nM. For the same molecule, the GI50 (DU-145) was 699 nM, the LC50 (concentration killing 50% of cells) (DU-145) was 3.34 µM and the TGI (DU-145) was 1730 nM. For the same molecule, the GI50 (LOX IMVI; Homo sapiens, LOX IMVI, 48 h) was 111 nM, the TGI (LOX IMVI; Homo sapiens, LOX IMVI, 48 h) was 259 nM and the IC50 (Plasmodium falciparum [3]; [9]) was 15.7 nM. The IC90 (Plasmodium falciparum [3]; [9]) was 30.8 nM, the GI50 (NCI-H23) was 660 nM and the LC50 (concentration killing 50% of cells) (NCI-H23) was 3.39 µM. The TGI (NCI-H23) was 1710 nM, the GI50 (HL-60) was 769 nM and the TGI (HL-60) was 1840 nM. The CC50 (HL-60; [8]) was 4.41 µM, the GI50 (A498) was 923 nM and the TGI (A498) was 1920 nM. It also gave a CC50 (A498; [8]) of 4 µM and a GI50 (NCI) of 110 nM.
For `CC(=O)O[C@H]1C[C@H]2[C@@H](CC[C@@H]3CC4(CC[C@@]32C)OOC2(CCC(C)CC2)OO4)[C@@H]2CC[C@H]([C@H](C)CCC(=O)NCCN(C)C)[C@@]12C` (stereo in doubt; 16) [listing 1 of 2 here], the GI50 (U-251) was 26 nM, the TGI (U-251) was 87 nM and the IC50 (Plasmodium falciparum [1]) was 16.8 nM. The IC90 (Plasmodium falciparum [1]) was 19.8 nM, the IC50 (Plasmodium falciparum [2]) was 12.8 nM and the IC90 (Plasmodium falciparum [2]) was 18.7 nM. The GI (COLO 205) was 0.083 µM, the TGI (COLO 205; Homo sapiens, COLO 205, 48 h) was 20 nM and the CC50 (COLO 205; Homo sapiens, COLO 205, 48 h, read-out: LC50 (the source's name)) was 490 nM. The GI50 (HOP-62) was 54 nM, the LC50 (HOP-62) was 1160 nM and the TGI (HOP-62) was 230 nM. The GI50 (HCT-116) was 9 nM, the TGI (HCT-116) was 21 nM and the CC50 (HCT-116; [8]) was 47 nM. The GI50 (HCT-15) was 94 nM, the GI50 (786-0) was 60 nM and the TGI (786-0) was 150 nM. For the same molecule, the CC50 (786-0; [8]) was 390 nM, the half-life [4] was 110 min and the GI (CCRF-CEM) was 0.056 µM. The LC50 (concentration killing 50% of cells) (CCRF-CEM; Homo sapiens, CCRF-CEM, 48 h) was 500 nM, the TGI (CCRF-CEM; Homo sapiens, CCRF-CEM, 48 h) was 170 nM and the LC50 (concentration killing 50% of cells) (LOX IMVI) was 22 nM. It also gave a GI50 (LOX IMVI; Homo sapiens, LOX IMVI, 48 h) of less than 5 nM, a TGI (LOX IMVI; Homo sapiens, LOX IMVI, 48 h) of 7.4 nM and a Survival (Mus musculus [5]) of 9 days. For the same molecule, the GI50 (T47D) was 130 nM, the TGI (T47D) was 410 nM and the IC50 (Plasmodium falciparum [3]) was 14.7 nM. For the same molecule, the IC90 (Plasmodium falciparum [3]) was 24.2 nM, the Survival (Mus musculus [6]) was 29 days and the half-life [7] was greater than 120 min. For the same molecule, the CC50 (M14) was 460 nM, the GI50 (HCC 2998) was 77 nM and the TGI (HCC 2998) was 210 nM. It also gave a CC50 (HCC 2998; [8]) of 980 nM.
In the case of `CC(=O)O[C@H]1C[C@H]2[C@@H](CC[C@@H]3CC4(CC[C@@]32C)OOC2(CCC(C)CC2)OO4)[C@@H]2CC[C@H]([C@H](C)CCC(=O)NCCN(C)C)[C@@]12C` (stereo in doubt; 16) [listing 2 of 2 here], the Activity (Plasmodium berghei) is reported as “inactive”.
Molecule `CC(=O)O[C@H]1C[C@H]2[C@@H]([C@H](OC(C)=O)C[C@@H]3CC4(CC[C@@]32C)OOC2(CCC(C)CC2)OO4)[C@@H]2CC[C@H]([C@H](C)CCC(=O)Nc3ccccc3)[C@@]12C` (stereo in doubt; 21) has a GI50 (A549) of 255 nM, a TGI (A549) of 664 nM and an IC50 (Plasmodium falciparum [1]) of 23.1 nM. For the same molecule, the IC90 (Plasmodium falciparum [1]) was 54.6 nM, the IC50 (Plasmodium falciparum [2]) was 19.8 nM and the IC90 (Plasmodium falciparum [2]) was 29.2 nM. The GI50 (UO-31) was 222 nM, the LC50 (UO-31) was greater than 10 µM and the TGI (UO-31) was 487 nM. It also gave a GI50 (LOX IMVI) of 181 nM, an LC50 (concentration killing 50% of cells) (LOX IMVI) of 758 nM and a TGI (LOX IMVI) of 370 nM. The IC50 (Plasmodium falciparum [3]) was 27.2 nM, the IC90 (Plasmodium falciparum [3]) was 69.7 nM and the GI50 (NCI) was 180 nM. The GI50 (HOP-92) was 266 nM, the LC50 (concentration killing 50% of cells) (HOP-92) was 8.84 µM and the TGI (HOP-92) was 766 nM.
